Results taken from PubChem BioAssay (NCI).
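A five-concentration, 48-hour dose response in 96-well plates underlies each endpoint, interpolated linearly between surrounding concentrations. The concentration for full growth arrest is given as TGI.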

Tests used:
Assay in all cases: NCI-60 cell line screen, 48 h
MDA-N = test system: MDA-N
A498 renal = test system: A498 renal
ACHN renal = test system: ACHN renal
NCI-H226 lung = test system: NCI-H226 lung
OVCAR-3 ovarian = test system: OVCAR-3 ovarian
HOP-62 NSCLC = test system: HOP-62 NSCLC
SNB-19 CNS = test system: SNB-19 CNS
LOX IMVI melanoma = test system: LOX IMVI melanoma
HCT-15 colon = test system: HCT-15 colon
SK-OV-3 ovarian = test system: SK-OV-3 ovarian
SK-MEL-2 melanoma = test system: SK-MEL-2 melanoma
MDA-MB-231 breast = test system: MDA-MB-231 breast
IGROV1 ovarian = test system: IGROV1 ovarian
SK-MEL-28 melanoma = test system: SK-MEL-28 melanoma

SMILES	TGI (MDA-N) [µM]	TGI (A498 renal) [µM]	TGI (ACHN renal) [µM]	TGI (NCI-H226 lung) [µM]	TGI (OVCAR-3 ovarian) [µM]	TGI (HOP-62 NSCLC) [µM]	TGI (SNB-19 CNS) [µM]	TGI (LOX IMVI melanoma) [µM]	TGI (HCT-15 colon) [µM]	TGI (SK-OV-3 ovarian) [µM]	TGI (SK-MEL-2 melanoma) [µM]	TGI (MDA-MB-231 breast) [µM]	TGI (IGROV1 ovarian) [µM]	TGI (SK-MEL-28 melanoma) [µM]
O=C1c2ccccc2-n2c1nc1cc(Cl)ccc1c2=O	29.1	> 100	> 100	> 100	> 100	> 100	> 100	76.2	> 100	> 100	> 100	> 100	> 100	–
COC1CC(n2ccc(=O)[nH]c2=O)OC1CO (stereo not drawn)	> 100	> 100	> 100	> 100	> 100	> 100	> 100	> 100	> 100	> 100	> 100	> 100	> 100	> 100
O=C1C=C(NCCc2cc(Cl)c(O)c(Cl)c2)C(=O)c2[nH]cnc21	33.8	> 100	> 100	–	47.2	> 100	> 100	> 100	> 100	–	57.6	> 100	38.8	65.9
O=C(Oc1ccc(OC(Oc2ccccc2)c2ccccc2)cc1)c1ccccc1 (stereo not drawn)	> 31.6	23.8	> 31.6	> 31.6	> 31.6	19	> 31.6	> 31.6	–	> 31.6	36.6	> 31.6	23.4	31
COc1cc2c(cc1OC)CN1CCc3ccccc3CC1C2 (stereo not drawn)	> 100	> 100	> 100	> 100	> 100	> 100	> 100	> 100	> 100	> 100	> 100	> 100	> 100	> 100
CCOC(=O)c1nc2cc(C(F)(F)F)ccc2nc1Oc1ccc(C(=O)OC)cc1	> 100	> 100	> 100	> 100	> 100	–	> 100	> 100	> 100	–	> 100	> 100	> 100	> 100
N#Cc1nc(NC(=O)c2ccccc2)sc1N	> 10	> 10	> 10	> 10	> 10	> 10	> 10	> 10	> 10	> 10	> 10	> 10	> 10	> 10
Cc1ccc(N=Nc2c(C)nn(C(=O)CC(=O)Nc3ccc(Cl)cc3)c2C)cc1C	> 100	> 100	> 100	> 100	> 100	> 100	> 100	> 100	–	51.2	> 100	> 100	> 100	> 100
Nc1ccc(-c2nc3ccc(Cc4ccc5nc(-c6ccc(N)cc6)oc5c4)cc3o2)cc1	> 100	> 100	> 100	> 100	–	–	> 100	> 100	> 100	> 100	> 100	> 100	–	> 100
Nc1nc(Sc2ccc([N+](=O)[O-])cn2)c2[nH]cnc2n1	34.6	47.8	> 73.5	57.3	> 75	> 100	72.1	17.1	> 73.3	> 51.1	10.2	35.1	77.9	> 100
O=C1Cc2c(-c3ccccc3)cc(-c3ccc4ccccc4c3)nc2-c2ccccc2N1	> 100	49.6	> 100	> 100	27.6	> 100	> 100	> 100	> 100	> 100	> 100	69.6	11.9	> 100
Cc1ccc(Nc2cc(=O)[nH]c(=O)[nH]2)cc1CS	> 100	> 100	> 100	> 100	> 100	> 100	> 100	> 100	> 100	> 100	> 100	> 100	> 100	> 100
Nc1ccc(-c2nc3ccccc3s2)cc1I	> 100	> 90.8	> 100	> 100	> 100	> 100	> 100	> 100	> 100	> 100	> 100	> 100	> 100	> 100
CCN(CC)c1nc(=O)c(C(=O)C(C)(C)C)c(C(C)(C)C)o1	> 100	> 100	> 100	> 100	–	> 100	> 100	> 100	> 100	> 100	> 100	> 100	> 100	> 100
Nc1ccc(-c2nc3ccccc3s2)cc1F	> 100	4.46	74.4	–	77.6	> 100	87.9	> 100	> 100	> 100	43.4	79	> 100	> 100
Cc1cccc2c(N)c3cccc(C(=O)NCCN4CCOCC4)c3nc12	2.91	5	13.1	–	16.9	7.55	3.12	4.28	6.39	16.9	2.61	4.55	3.4	6.29
CC(=O)O[C@H]1CC[C@@]2(C)C(=CC[C@H]3[C@@H]4C/C(=C\c5ccncc5)[C@H](OC(C)=O)[C@@]4(C)CC[C@@H]32)C1	46.8	26.7	33.6	34.6	23.4	17.7	22.2	13.3	15.6	44.1	33.3	41.1	27.7	20.6

SMILES	TGI (MDA-N) [µM]	TGI (A498 renal) [µM]	TGI (ACHN renal) [µM]	TGI (NCI-H226 lung) [µM]	TGI (OVCAR-3 ovarian) [µM]	TGI (HOP-62 NSCLC) [µM]	TGI (SNB-19 CNS) [µM]	TGI (LOX IMVI melanoma) [µM]	TGI (HCT-15 colon) [µM]	TGI (SK-OV-3 ovarian) [µM]	TGI (SK-MEL-2 melanoma) [µM]	TGI (MDA-MB-231 breast) [µM]	TGI (IGROV1 ovarian) [µM]	TGI (SK-MEL-28 melanoma) [µM]
Nc1nc(NCC2(CO)CC(CCc3ccccc3)C2)cc(=O)[nH]1 (stereo not drawn)	> 100	> 100	–	> 100	> 100	> 100	> 100	> 100	> 100	80.6	> 100	> 100	> 100	> 100
CC(C)N(C(=O)c1ccc(NCc2cc(O)ccc2O)cc1)C(C)C	42	62.2	26.7	45.3	25.1	69.4	58.6	30.4	33.6	> 100	57.9	32	64.8	45.9
N#Cc1nc(C2SCCCS2)oc1N	> 100	> 100	> 100	–	–	> 100	> 100	> 100	> 100	> 100	> 100	> 100	> 100	> 100
O=[N+]([O-])c1cc(C(F)(F)F)ccc1S(=O)(=O)N[C@@H]1CCCC[C@H]1NS(=O)(=O)c1ccc(C(F)(F)F)cc1[N+](=O)[O-]	21.6	> 23.7	11.2	> 46.6	7.07	30.9	> 31.6	3.24	10.1	71.7	9.88	8.02	7.5	33.3
Cc1n(-c2ccccc2)c2c([n+]1Cc1ccc([N+](=O)[O-])cc1)C(=O)c1ccccc1C2=O	3.16	25.5	13.9	15.1	0.854	16.6	3.22	3.73	22.5	12.5	2.97	3.08	2.23	3.59
CN(C)c1ccc(/C=C2\N=C(c3ccccc3)N(/N=C3\C(=O)Nc4ccccc43)C2=O)cc1	> 100	> 100	> 100	–	65.5	> 100	> 100	> 100	> 100	> 100	> 100	> 100	> 100	> 100
Cc1ccc(Cc2nn(C)c(=O)n2-n2cccc2)cc1	> 100	> 100	> 100	> 100	> 100	> 100	> 100	> 100	> 100	> 100	> 100	> 100	> 100	> 100
CSc1n[nH]c2n[nH]c(C)c12	> 100	> 100	> 100	> 100	> 100	> 100	> 100	> 100	> 100	> 100	> 100	> 100	> 100	> 100
Cc1ccc(S(=O)(=O)c2ccsc2NC(=O)c2ccccc2)cc1	> 100	> 100	> 79.7	> 100	> 100	45	> 100	> 100	> 100	> 100	> 100	> 79.4	> 100	> 100
C=CCOCn1ccc(NC(=O)c2ccccc2)nc1=O	> 100	> 100	> 100	> 100	–	> 100	> 100	> 100	> 100	> 100	–	> 100	> 100	> 100
C=CCN1C[C@@H](C)N([C@@H](c2ccccc2)c2ccc(C(=O)N(CC)CC)cc2)C[C@@H]1C	> 100	> 100	> 100	> 100	> 100	> 100	> 100	–	> 100	> 100	> 100	> 100	> 100	> 100
COc1ccc(/C(Cl)=C(\CNc2ccccn2)c2ccccc2)cc1OC	> 100	> 100	> 100	> 100	–	> 100	> 100	> 100	> 100	> 100	> 100	> 100	> 100	> 100
C[N+]1(CCCC[N+]2(C)CCCCCCC2)CCCCCCC1	> 100	> 100	> 100	> 100	> 100	> 100	> 100	> 100	> 100	–	> 100	> 100	> 100	> 100
O=c1c2ccccc2n2n1Cc1ccccc1C2	> 100	> 100	> 100	> 100	> 100	> 100	> 100	> 100	> 100	> 100	–	> 100	> 100	> 100
CC1=C(c2ccc(C)cc2)NC(=S)C(C)C(c2ccc(C)cc2)=N1 (stereo not drawn)	> 100	> 100	> 100	> 100	–	> 100	> 100	> 100	> 100	> 100	–	> 100	> 100	> 100
CCOC(=O)NC(C(C(=O)OCC)C(=O)OCC)(C(F)(F)F)C(F)(F)F	> 100	> 100	> 100	> 100	> 100	> 100	> 100	> 100	> 100	–	> 100	> 100	> 100	> 100
COCN1C(=O)[C@@H]2CCCN2C(=O)c2cc(Cl)ccc21	> 100	> 100	> 100	–	–	> 100	> 100	> 100	> 100	> 100	> 100	> 100	> 100	> 100
